Among the data in patent US10981893B2, “Therapeutic inhibitory compounds” (Attune Pharmaceuticals, Inc., priority 2015, dated 2021) are IC50 and EC50 values, retold here.

Bounds are passed on as bounds.

One assay has as its target human Plasma Kallikrein (Homo sapiens (Human), UniProt P03952). The assay is described as follows: In vitro enzyme inhibition of human plasma kallikrein (Pro-Phe-Arg-AMC cleavage). In kind it is biochemical. Conditions: PFR-AMC substrate, 37° C., read-out: hPK IC50. On the procedure:
The ability of the compounds disclosed herein to inhibit human plasma kallikrein activity was quantified according to the procedures below.
A 10 mM solution of the test compound was made in DMSO. This solution was serially diluted 1:5 in DMSO to yield 2000, 400, 80, 16, 3.2, 0.64, 0.128, 0.0256 and 0.00512 μM compound test solutions. A control tube containing only DMSO is included. 16 μL of each compound test solution was combined with 384 μL of assay buffer (50 mM Tris-HCl pH 7.5, 150 mM NaCl, 0.01% Triton X-100) to yield a “4× test compound buffer stock”.
Separately, a 40 nM solution of human Plasma Kallikrein (Abcam) and a 93.6 μM solution Pro-Phe-Arg-AMC (Bachem) were made using assay buffer. These solutions are hereby refereed to as 4×hPK and 2×PFR-AMC, respectively.
60 μL of each 4× test compound buffer stock was combined with 60 μL of 4× hPK to yield 120 μL of “2× test compound buffer stock/2×hPK”. 50 μL was removed from this mixture and placed into duplicate wells on a Microfluor 1 Black U-bottom microtiter plate (Thermo Scientific). This plate was incubated for 5 minutes at 37° C. To each well, 50 μL of pre-warmed 2×PFR-AMC was added to start the enzymatic reaction. Cleavage of PFR-AMC was monitored in a Biotek Synergy H4 reader set at 37° C. Readings are taken every 43 seconds for 1 hour. The highest mean velocity over 20 reads (˜15 minutes) is used to calculate the IC50. The IC50 is calculated using the Gen5 (Biotek Instruments).
The ability of the compounds in Table 1 to inhibit human plasma kallikrein activity was determined and the data is shown in Table 3.

Assay [1] concerns the target kallikrein in human plasma (Homo sapiens (Human), UniProt P03952). Description: In vitro cellular assay / contact assay: kallikrein activity in ellagic acid-activated human plasma (Z-FR-2-AMC substrate). Type of assay: biochemical. The conditions noted are these: human plasma activated with ellagic acid, 37° C. The procedure: The ability of the compounds disclosed herein to inhibit cellular kallikrein activity was quantified and the respective EC50 value was determined.
Plasma kallikrein inhibitor C1NH (Athens Research & Technology, Cat #16-16-031509); Ellagic acid (Sigma, E2250); Substrate Z—FR-2-AMC (GL Biochem, Cat #55352); Nunc™ 96-Well Polypropylene MicroWell™ Plates (Nunc, Cat #267342)
All dilutions were prepared in an assay buffer comprising 50 mM Tris-HCl pH 7.2, 150 mM NaCl, and 0.01% Triton X-100.
Four fold serial dilutions were prepared from a 107.53 μM plasma kallikrein inhibitor C1NH stock solution, to yield ten solutions with concentrations between 20 μM and […]. Similarly, four fold serial dilutions were prepared from 10 mM stock solutions of various test compounds, to yield ten solutions with concentrations between 4 mM and 0.015 μM. The ten solutions of the test compounds, prepared by serial dilution, were further diluted 50-fold in the assay buffer.
Human plasma is thawed on ice and centrifuged for 15 min at 4° C. to remove platelets. A 1 mM stock solution of ellagic acid is diluted to 8 μM and mixed with human plasma, after removing platelets, at a ratio of 1:0.8. The mixture of human plasma and ellagic acid was further diluted 32-fold in the assay buffer, to yield the final mixture for use in the inhibition assay.
A 22.5 μL volume of the final mixture of human plasma and ellagic acid was added to a 96-well microwell plate and the plate was incubated for 15 min at 37° C.
The test compounds at various concentrations, also prepared by serial dilutions as described above, are added to the test wells. The volume of test compound added to each test well was 12.5 μL, to yield final concentrations of 20 μM, 5 μM, 1.25 μM, 312.5 nM, 78.125 nM, 19.531 nM, 4.883 nM, 1.221 nM, 0.305 nM, and 0.076 nM. Each test compound concentration was tested in duplicates.
In addition to the inhibitor control and test wells, the 96 well assay plate includes positive control wells which contained the mixture of human plasma and ellagic acid without C1NH inhibitor or test compounds, and background wells which contained neither the mixture of human plasma and ellagic acid nor the test compounds. The total volume of liquid in positive control and background wells was brought up to 35 μL, using the assay buffer.
The assay plate containing C1NH inhibitors and test compounds mixed with human plasma and ellagic acid and appropriate controls was incubated at 37° C. for 5 min. A 10 mM stock solution of substrate Z—FR-2-AMC was diluted to 133.2 μM in the assay buffer, and 15 μL of the diluted substrate was added to each well, to yield a final substrate concentration of 40 μM in each well. […]
The enzyme reaction was quantified by immediate kinetic reading of the assay plate using excitation/emission wavelengths of 330 nm/440 nm respectively. Fluorescence intensity was recorded for 60 min, using a time interval of 43 sec.
The inhibition activity of the test compounds were evaluated using the IC50 values, calculated according to the dose-response curve of the test compounds, fitted using the “log(inhibitor)-response(variable slope)” equation in GraphPadPrism software (GraphPad Software, Inc.).
The percentage inhibition was calculated using the following equation:
[formula] where, Mean(BG) is the average value of the fluorescence intensity of the background wells and Mean(PC) is the average value of the fluorescence intensity of the positive control wells. […]

Sequence of human Plasma Kallikrein (P03952 391-638 limits assumed): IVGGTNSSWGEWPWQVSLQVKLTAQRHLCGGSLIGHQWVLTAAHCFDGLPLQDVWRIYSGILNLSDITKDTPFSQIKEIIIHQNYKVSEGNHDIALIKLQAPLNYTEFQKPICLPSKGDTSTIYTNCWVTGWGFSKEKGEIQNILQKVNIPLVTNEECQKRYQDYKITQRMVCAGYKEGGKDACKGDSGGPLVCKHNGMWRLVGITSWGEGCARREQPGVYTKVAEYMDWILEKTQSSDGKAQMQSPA
Sequence of human Plasma Kallikrein (P03952 20-390 partner limits assumed): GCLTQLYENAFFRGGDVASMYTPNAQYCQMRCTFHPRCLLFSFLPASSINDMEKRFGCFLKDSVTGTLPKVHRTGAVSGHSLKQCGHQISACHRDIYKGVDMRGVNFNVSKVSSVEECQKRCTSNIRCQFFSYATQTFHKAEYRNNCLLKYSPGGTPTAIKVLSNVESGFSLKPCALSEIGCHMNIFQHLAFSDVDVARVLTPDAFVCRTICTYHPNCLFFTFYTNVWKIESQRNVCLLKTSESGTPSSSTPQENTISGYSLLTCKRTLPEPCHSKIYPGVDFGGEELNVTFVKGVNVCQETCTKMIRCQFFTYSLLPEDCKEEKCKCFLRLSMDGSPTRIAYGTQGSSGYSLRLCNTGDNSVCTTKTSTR
Sequence of kallikrein in human plasma (P03952 391-638 limits assumed): as the sequence (P03952 391-638 limits assumed) above
Sequence of kallikrein in human plasma (P03952 20-390 partner limits assumed): as the sequence (P03952 20-390 partner limits assumed) above

Consider `Cc1cc(N)nc(C)c1CNC(=O)c1cncc(Cc2ccc3ncc(Cl)cc3c2)c1` [Example 22, N-((6-amino-2,4-dimethylpyridin-3-yl)methyl)-5-((3-chloroquinolin-6-yl)methyl)nicotinamide], for which, on human Plasma Kallikrein, the IC50 was at most 0.1 µM. Moreover, in assay [1], the EC50 is at most 0.1 µM.

For `Cc1nc(N)ccc1CNC(=O)c1ccnc(Cc2ccc(Cn3ccccc3=O)c(S(C)(=O)=O)c2)c1` [Example 23, N-((6-amino-2-methylpyridin-3-yl)methyl)-2-(3-(methylsulfonyl)-4-((2-oxopyridin-1(2H)-yl)methyl)benzyl)isonicotinamide], the IC50 at human Plasma Kallikrein is at most 0.1 µM. In assay [1], this molecule displayed a concentration giving a half-maximal response (EC50) of at most 0.1 µM.

As for `Cc1cc(N)nc(C)c1CNC(=O)c1cncc(Cc2ccc3ncc(Cl)cc3c2)n1` [Example 25, N-((6-amino-2,4-dimethylpyridin-3-yl)methyl)-6-((3-chloroquinolin-6-yl)methyl)pyrazine-2-carboxamide], the IC50 on human Plasma Kallikrein is at most 0.1 µM. The molecule also gave an EC50 in assay [1] of at most 0.1 µM.

`CS(=O)(=O)c1cc(Cc2cc(C(=O)NCc3cnc4[nH]cc(Cl)c4c3)ccn2)ccc1Cn1ccccc1=O` [Example 29]: at human Plasma Kallikrein, the concentration for half-maximal inhibition (IC50) is at most 0.1 µM. Moreover, the EC50 in assay [1] is at most 0.1 µM.
